In US6676973B1, “Method of treating ovarian cancers with cadmium” (priority 1995, dated 2004):

Legend:
A2780 cells [1] = test: microculture tetrazolium (MTT) cytotoxicity assay, A2780; type: cell-based, human; conditions: A2780 cells, 1 hour exposure, MTT
Procedure: (§1) Human ovarian cancer A2780 and A2780/CP70 cells were cultured in monolayer using RPMI 1640 media supplemented with 10% fetal calf serum, 2 mM L-glutamine, 0.2 U insulin/ml, 100 U/ml penicillin, and 100 μg/ml streptomycin (GIBCO, Grands Island, N.Y.). Cells were grown in a humidified chamber containing a mixture of 5% CO2 and ambient air at 37° C. Sensitivity of A2780 and A2780/CP70 cells to Cd and to cisplatin was assessed by microculture tetrazolium (MTT) assay, as described by Alley et al. Briefly, cells were plated at 1000 cells/well in 96-well plates and drug exposure was made the following day. Cadmium dichloride was initially dissolved in double distilled water (Dh2O) at 1.0 mg/ml (5.46 Mm Cadmium), and dilutions from this solution were made in media to obtain the desired drug treatment concentrations of 1 μM, 10 μM, 20 μM, 40 μM, 100 μM, 150 μM and 200 μM. Cisplatin was dissolved in PBS without Ca^++ or Mg^++ at 1.0 mg/ml (3.33 Mm cisplatin), and dilutions from this solution was made in media to obtain the desired drug treatment concentrations of ranging from 1 μM to 300 μM. Drug treatments were for 1 hour.
(§2) After drug treatments, cells were washed twice with PBS without Ca^++ or Mg^++, treated with fresh drug-free media, and incubated for 5 days. On day 5 after drug treatment, 50 microliter of 3-(4,5-dimethylthiazol-2-yl)-2,5 diphenyltetrazolium bromide (MTT) (400 mg in 200 ml of PBS) were added to each well and incubated for 4 hours at 37° C. Analysis of optical density readings were performed using the VV Deltasoft program on a Macintosh computer (Apple, Inc., Palo Alto, Calif.) and percentage cell growth values were obtained.

A2780/CP70 cells [2] = type: cell-based, human
Procedure: as §1, §2

A2780 cells [3] = test: cellular Cd accumulation after 1 hour exposure to a range of Cd doses (AAS), A2780; type: cell-based, human
Procedure: We examined the cellular Cd accumulation following 1 hour exposures to a range of Cd doses. Cells were grown in T-150 flasks (Costar, Cambridge, Mass.) to 60-80% confluence and then exposed to 10 μM, 50 μM, 100 μM and 200 μM Cd for 1 hour. Cells were harvested, immediately counted and then “wet-ashed” [20]. Total cellular Cd accumulation was measured by atomic absorption spectrometry with Zeeman background correction (AAS), and assessed as nanograms of Cd per million cells (ng Cd/10^6 cells)

A2780 cells [4] = test: cellular drug accumulation and efflux at IC50 dose (AAS), A2780; type: cell-based, human; conditions: for ASSOCIATED DRUG / PERCENT REMOVED (efflux) / PERCENT ACCUMULATION / DRUG UPTAKE: A2780; for PERCENT ACCUMULATION: IC50 dose; for DRUG UPTAKE: IC50 dose 58 μM
Procedure: (§3) Cells were harvested at time points of 15, 30, 45, and 60 minutes during 1 hour drug exposures, and at 1 and 3 hours after drug exposure. Cells were immediately counted and then wet-ashed. Total cellular drug. accumulation was measured by AAS, and assessed as both nanograms of Cd per million cells (ng Cd/10^6 cells) and as the percentage of the highest levels of total cellular drug.

A2780/CP70 cells [5] = test: cellular drug accumulation and efflux at IC50 dose (AAS), A2780/CP70; type: cell-based, human; conditions: for PERCENT ACCUMULATION: IC50 dose; for DRUG UPTAKE: IC50 dose 128 μM
Procedure: as §3

[6] = test system: cellular DNA of A2780/CP70 cells; test: Cd-DNA adduct formation after 1 hour exposure to a range of Cd doses (AAS), A2780/CP70; type: cell-based, human
Procedure: We examined the formation of Cd-DNA adduct in cellular DNA following 1 hour exposures to a range of Cd drug doses. Cells were grown in T-150 flasks (Costar, Cambridge, Mass.) to 60-80% confluence and then exposed to 0 μM (control), 10 μM, 50 μM, 100 μM and 200 μM Cd for 1 hour. Following a 1 hour drug exposure, cells were washed twice with cold PBS, harvested, and frozen immediately at −20° C. until DNA isolation. Total cellular DNA was isolated on cesium chloride density gradients. DNA was dialyzed against Dh2O with 3-4 changes over 36-48 hours, and quantitated by absorbance at 260 nm. Total Cd per unit DNA was measured by AAS.

[7] = test system: cellular DNA of A2780 cells; test: Cd-DNA adduct formation and repair after IC50 exposure (AAS), A2780; type: cell-based, human
Procedure: (§4) We examined the formation and removal of Cd-DNA adduct in cellular DNA following 1 hour drug exposures. […] An aliquot of cells was harvested before drug treatment (time zero). Following a 1 hour drug exposure, cells were washed and harvested at. the following time points: 0 hour (immediately at the end of Cd exposure), 1 hour, 6 hour, and 24 hours. Cells were frozen immediately at −20° C. until DNA isolation. Total cellular DNA was isolated and assayed as described above, and total Cd per unit DNA was measured by AAS.

[8] = test system: cellular DNA of A2780/CP70 cells; test: Cd-DNA adduct formation and repair after IC50 exposure (AAS), A2780/CP70; type: cell-based, human
Procedure: as §4

[9] = test system: liver and lung tumors in B6C3F1 mice; conditions: single dose of NDEA followed by cadmium chloride in the drinking water; cited from earlier work
[10] = A2780/CP70 cells, 1 hour exposure, MTT
[11] = 0 hours after 1 hour IC50 exposure
[12] = 1 hour after 1 hour IC50 exposure
[13] = 3 hours after 1 hour IC50 exposure
[14] = 3 hours after 1 hour IC50 exposure, listed as Cadmium

## [Cl][Cd][Cl] [Cd, Cadmium dichloride]
A2780 cells [1]
  10% cell kill: 0.45 µM
  90% cell kill: 130 µM
A2780 cells [1]; read-out: 50% cell kill (IC50)
  IC50: 58 µM
A2780/CP70 cells [2]; [10]
  10% cell kill: 28 µM
  90% cell kill: 195 µM
A2780/CP70 cells [2]; A2780/CP70 cells, 1 hour exposure, MTT, read-out: 50% cell kill (IC50)
  IC50: 128 µM
A2780/CP70 cells [2]; compared with 10-fold resistance to cisplatin
  level of cross-resistance of A2780/CP70 cells to Cd: approximately equal level
A2780/CP70 cells [2]; on a μM basis, 50% cell kill
  A2780/CP70 cells more sensitive to Cd (than to cisplatin): 1.25 fold
A2780 cells [3]; A2780 cells, 1 hour exposure, up to 200 μM
  slope of linear regression, cellular Cd versus Cd dose: 0.024
A2780 cells [3]; from slopes of linear regression
  more cellular drug accumulated per unit dose, A2780 versus A2780/CP70: 4.9 fold
A2780 cells [4]; [11]
  ASSOCIATED DRUG: 20.85 ± 4.4 ng Cd/10^6 Cells
A2780 cells [4]; 0 hours after exposure
  PERCENT REMOVED (efflux): 90%
A2780 cells [4]; 15 minutes
  PERCENT ACCUMULATION: 33%
  DRUG UPTAKE: 6.89 ± 0.53 ng Cd/10^6
A2780 cells [4]; 30 minutes
  PERCENT ACCUMULATION: 47%
  DRUG UPTAKE: 9.83 ± 1.06 ng Cd/10^6
A2780 cells [4]; 45 minutes
  PERCENT ACCUMULATION: 60%
  DRUG UPTAKE: 12.47 ± 1.95 ng Cd/10^6
A2780 cells [4]; [12]
  ASSOCIATED DRUG: 12.74 ± 3.74 ng Cd/10^6 Cells
A2780 cells [4]; 1 hour after exposure
  PERCENT REMOVED (efflux): 30%
A2780 cells [4]; 60 minutes
  PERCENT ACCUMULATION: 100%
  DRUG UPTAKE: 20.85±4.49 ng Cd/10^6
A2780 cells [4]; 60 minutes, listed as Cadmium
  DRUG UPTAKE: 20.85 ± 4.49 ng Cd/10^6
A2780 cells [4]; [13]
  ASSOCIATED DRUG: 6.56±0.58 ng Cd/10^6 Cells
A2780 cells [4]; [14]
  ASSOCIATED DRUG: 6.56 ± 0.58 ng Cd/10^6 Cells
A2780 cells [4]; 3 hours after exposure
  PERCENT REMOVED (efflux): 69%
A2780 cells [4]; from slopes, respective IC50 doses
  greater rate of Cd accumulation, A2780 versus A2780/CP70: 2.8 fold
A2780/CP70 cells [5]; [11]
  ASSOCIATED DRUG: 6.61 ± 1.4 ng Cd/10^6 Cells
A2780/CP70 cells [5]; 0 hours after exposure
  PERCENT REMOVED (efflux): 80%
A2780/CP70 cells [5]; 15 minutes
  PERCENT ACCUMULATION: 10%
  DRUG UPTAKE: 0.65 ± 0.16 ng Cd/10^6
A2780/CP70 cells [5]; 30 minutes
  PERCENT ACCUMULATION: 46%
  DRUG UPTAKE: 3.03 ± 1.11 ng Cd/10^6
A2780/CP70 cells [5]; 45 minutes
  PERCENT ACCUMULATION: 66%
  DRUG UPTAKE: 4.33 ± 2.02 ng Cd/10^6
A2780/CP70 cells [5]; [12]
  ASSOCIATED DRUG: 4.08 ± 1.4 ng Cd/10^6 Cells
A2780/CP70 cells [5]; 1 hour after exposure
  PERCENT REMOVED (efflux): 38%
A2780/CP70 cells [5]; 60 minutes
  PERCENT ACCUMULATION: 100%
  DRUG UPTAKE: 6.61±1.48 ng Cd/10^6
A2780/CP70 cells [5]; 60 minutes, listed as Cadmium
  DRUG UPTAKE: 6.61 ± 1.48 ng Cd/10^6
A2780/CP70 cells [5]; [13]
  ASSOCIATED DRUG: 2.08±0.92 ng Cd/10^6 Cells
A2780/CP70 cells [5]; [14]
  ASSOCIATED DRUG: 2.08 ± 0.92 ng Cd/10^6 Cells
A2780/CP70 cells [5]; 3 hours after exposure
  PERCENT REMOVED (efflux): 69%
[6]; FIG. 5B, A2780/CP70 versus A2780
  more DNA damage required in resistant A2780/CP70 cells to induce an equivalent level of cell kill: 5-10 lesions per million DNA bases
[6]; from slopes of the equations
  more Cd needed in A2780/CP70 to attain the same level of Cd-DNA damage as in A2780: 1.7 fold
[7]; 0 hours after 1 hour IC50 (58 μM) exposure
  Cd-DNA ADDUCT: 8.45 ± 3.59 pg Cd/μg DNA
[7]; 0 hours after IC50 exposure
  % REPAIR (amount of peak adduct removed): 0%
[7]; 1 hour after 1 hour IC50 (58 μM) exposure, peak
  Cd-DNA ADDUCT: 11.81±6.59 pg Cd/μg DNA
[7]; 1 hour after 1 hour IC50 (58 μM) exposure, peak, listed as Cadmium
  Cd-DNA ADDUCT: 11.81 ± 6.59 pg Cd/μg DNA
[7]; 1 hour after IC50 exposure
  % REPAIR (amount of peak adduct removed): no removal
[7]; 1 hour after IC50 exposure, listed as Cadmium
  % REPAIR (amount of peak adduct removed): 0%
[7]; 6 hours after 1 hour IC50 (58 μM) exposure
  Cd-DNA ADDUCT: 7.08±3.92 pg Cd/μg DNA
[7]; 6 hours after 1 hour IC50 (58 μM) exposure, listed as Cadmium
  Cd-DNA ADDUCT: 7.08 ± 3.92 pg Cd/μg DNA
[7]; 6 hours after IC50 exposure
  % REPAIR (amount of peak adduct removed): 40%
[7]; 24 hours after 1 hour IC50 (58 μM) exposure
  Cd-DNA ADDUCT: 5.28±3.11 pg Cd/μg DNA
[7]; 24 hours after 1 hour IC50 (58 μM) exposure, listed as Cadmium
  Cd-DNA ADDUCT: 5.28 ± 3.11 pg Cd/μg DNA
[7]; 24 hours after IC50 exposure
  % REPAIR (amount of peak adduct removed): 55%
[8]; 0 hours after 1 hour IC50 (128 μM) exposure, peak
  Cd-DNA ADDUCT: 15.58±3.56 pg Cd/μg DNA
[8]; 0 hours after 1 hour IC50 (128 μM) exposure, peak, listed as Cadmium
  Cd-DNA ADDUCT: 15.58 ± 3.56 pg Cd/μg DNA
[8]; 0 hours after IC50 exposure
  % REPAIR (amount of peak adduct removed): 0%
[8]; 1 hour after 1 hour IC50 (128 μM) exposure
  Cd-DNA ADDUCT: 13.31 ± 4.62 pg Cd/μg DNA
[8]; 1 hour after IC50 exposure
  % REPAIR (amount of peak adduct removed): 15%
[8]; 6 hours after 1 hour IC50 (128 μM) exposure
  Cd-DNA ADDUCT: 12.05±3.98 pg Cd/μg DNA
[8]; 6 hours after 1 hour IC50 (128 μM) exposure, listed as Cadmium
  Cd-DNA ADDUCT: 12.05 ± 3.98 pg Cd/μg DNA
[8]; 6 hours after IC50 exposure
  % REPAIR (amount of peak adduct removed): 23%
[8]; 24 hours after 1 hour IC50 (128 μM) exposure
  Cd-DNA ADDUCT: 8.47±2.85 pg Cd/μg DNA
[8]; 24 hours after 1 hour IC50 (128 μM) exposure, listed as Cadmium
  Cd-DNA ADDUCT: 8.47 ± 2.85 pg Cd/μg DNA
[8]; 24 hours after IC50 exposure
  % REPAIR (amount of peak adduct removed): 46%
[9]
  incidence and multiplicity of NDEA-induced lung tumors: reduced
  spontaneously-occurring liver tumors: eliminated
